Measurements: patent publication US11191754B2, “Inhibitors of nucleotidyl transferases and uses in herpes and hepatitis viral infections therefor” (Saint Louis University, priority 2015, dated 2021)
Where “and” joins values, the source holds several entries; their conditions need not be identical. Identical values can stand only once.

Assays:
[1] = system: HSV-2; assay: Anti-HSV-2 replication assay (virus yield by plaque assay on Vero cells); format: cell-based, herpes simplex virus 2 (HSV-2); details: for HSV-2 inhibition category: semi-quantitative replication inhibition assay
Experimental: Vero cells were maintained in Dulbecco's modified Eagle's medium (DMEM) containing 3% newborn calf serum, 3% bovine growth serum, 2 mM L-glutamine and 100 IU/mL penicillin and 0.1 mg/mL streptomycin (P/S). HSV-1 #6 and HSV-2 #1 are de-identified clinical isolates from the Saint Louis University Hospital. Stocks were prepared after a single passage in cell culture and were titered by standard plaque assay (Knipe and Spang, 1982). Wild-type HSV-2 used in FIG. 3 was laboratory strain 333. […] Virus stocks were grown and titered on Vero cells (Morrison and Knipe, 1996).
Compounds to be screened were diluted in PBS supplemented to contain 2% newborn calf serum and 1% glutamine, and added in 100 μL volume to confluent cell monolayers in 24-well cluster plates. Immediately thereafter HSV-1 and HSV-2, diluted in the supplemented PBS medium, were added to the wells in 50 μl volume such that the final concentration of compound was 50 μM, 5 μM and 1 μM and the multiplicity of infection was 0.1. The plates were incubated at 37° C. for 1 hour and then virus-containing inoculum was removed and the wells were washed once in PBS. Compound, diluted to 50 μM, 5 μM and 1 μM in DMEM supplemented to contain 2% newborn calf serum and 1% each penicillin/streptomycin, was added at 0.5 mL/well. Plates were incubated at 37° C. an additional 23 hours, and then the plates were visually inspected through a phase contrast microscope for cytopathic effect, and for toxic effect. The entire contents of each well were collected by scraping. Samples were frozen at −80° C., and then subsequently thawed, sonicated, and infectious virus titer was determined by standard plaque assay on Vero cell monolayers. Because the compounds were dissolved at 10 mM in 100% DMSO, equivalent dilutions of DMSO were added to additional wells as a control for effects of the diluent. Each experiment was repeated once. EC50 values were determined as above except that serial dilutions of the compound to be tested were prepared starting at 50 μM. The inhibitory values were calculated by non-linear curve-fitting in GraphPad Prism.

[2] = system: TK-deficient mutant of HSV-2 strain 333, ΔTK-; assay: Replication of TK-deficient HSV-2 mutant in Vero cells; format: cell-based, herpes simplex virus 2 (HSV-2); details: 5 μM, 24 h (FIG. 3)
Experimental: Vero cells were maintained in Dulbecco's modified Eagle's medium (DMEM) containing 3% newborn calf serum, 3% bovine growth serum, 2 mM L-glutamine and 100 IU/mL penicillin and 0.1 mg/mL streptomycin (P/S). HSV-1 #6 and HSV-2 #1 are de-identified clinical isolates from the Saint Louis University Hospital. Stocks were prepared after a single passage in cell culture and were titered by standard plaque assay (Knipe and Spang, 1982). Wild-type HSV-2 used in FIG. 3 was laboratory strain 333. The TK-deficient mutant of HSV-2 strain 333, ΔTK-, contains a 180-bp KpnI-KpnI deletion in the UL23 open reading frame that abrogates TK activity (McDermott, et al, 1984). ΔTK—was the generous gift of Jim Smiley. Virus stocks were grown and titered on Vero cells (Morrison and Knipe, 1996).
ACV is a nucleoside analog prodrug that must be phosphorylated by the viral thymidine kinase (TK) for it to become a substrate for the viral DNA polymerase (Elion, et al., 1977). HSV TK-deficient mutants are therefore insensitive to ACV. […] Vero cells were infected with a laboratory strain of HSV-2 and an engineered TK-deficient mutant of the same strain. […] ACV 5 μM inhibited wild-type HSV-2 replication 100-fold, but it had little effect on the TK-mutant (FIG. 3).

Cc1cc(CC(C)CC(C)(C)C)n(O)c(=O)c1 (stereo not shown) [#191, Piroctone olamine]
HSV-2 inhibition category ([1]; 1 μM): intermediate (1 to 3 log10 suppression, which equals 10- to 1,000-fold reduction)
HSV-2 Log10 suppression 1 μM ([1]; 1 μM, Vero cells, moi 0.1, 24 h, relative to DMSO control): 1.70 log10
HSV-2 replication inhibition, fold ([1]; 5 μM): 39,000 fold
HSV-2 inhibition category ([1]; 5 μM): strong (3 to 6 log10 suppression, or 1,000- to 1,000,000-fold reduction)
suppression of replication of three primary clinical isolates of HSV-2 ([1]; 5 μM, Vero cells, moi 0.1, 24 h (FIG. 2)): > 4.7 log10
HSV-2 Log10 suppression 5 μM ([1]; 5 μM, Vero cells, moi 0.1, 24 h, relative to DMSO control): 4.59 log10 and 4.53 log10
inhibition of wild-type HSV-2 ([1]; 5 μM, laboratory strain 333, Vero cells, 24 h (FIG. 3)): efficiently inhibited
HSV-2 inhibition category ([1]; 50 μM): strong (3 to 6 log10 suppression, or 1,000- to 1,000,000-fold reduction)
HSV-2 Log10 suppression 50 μM ([1]; 50 μM, Vero cells, moi 0.1, 24 h, relative to DMSO control): 4.25 log10
inhibition of TK-mutant HSV-2 [2]: efficiently inhibited
